Test results published in the supplement of paper PMC10307832.

Columns and labels:
Experiment in all cases: relative viability (nuclei count vs DMSO), 5 days (fraction); higher = more cells survive
NCI-H2405 = tested on: NCI-H2405
How it was run: (§1)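 Lung cancer cell lines were pin-tool dosed in 1536-well plates on the day after seeding, with either a lone drug or a fixed anchor-drug dose plus five library-drug doses (not always all listed) in √10 steps. Nuclei were counted on 4× images after 5 days. Relative viability is the ratio of treated-well to vehicle-well nuclei counts, with each value a median of duplicate plates.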

COR-L23 = tested on: COR-L23
How it was run: as §1

NCI-H2023 = tested on: NCI-H2023
How it was run: as §1

NCI-H2126 = tested on: NCI-H2126
How it was run: as §1

NCI-H838 = tested on: NCI-H838
How it was run: as §1

NCI-H1395 = tested on: NCI-H1395
How it was run: as §1

HARA = tested on: HARA
How it was run: as §1

HCC-15 = tested on: HCC-15
How it was run: as §1

HOP-62 = tested on: HOP-62
How it was run: as §1

NCI-H1793 = tested on: NCI-H1793
How it was run: as §1

EMC-BAC-2 = tested on: EMC-BAC-2
How it was run: as §1

HCC-78 = tested on: HCC-78
How it was run: as §1

SK-LU-1 = tested on: SK-LU-1
How it was run: as §1

NCI-H1944 = tested on: NCI-H1944
How it was run: as §1

LC-2-ad = tested on: LC-2-ad
How it was run: as §1

NCI-H23 = tested on: NCI-H23
How it was run: as §1

HCC-366 = tested on: HCC-366
How it was run: as §1

NCI-H358 = tested on: NCI-H358
How it was run: as §1

NCI-H1993 = tested on: NCI-H1993
How it was run: as §1

NCI-H2228 = tested on: NCI-H2228
How it was run: as §1

ChaGo-K-1 = tested on: ChaGo-K-1
How it was run: as §1

SMILES: Nc1ccn([C@@H]2O[C@H](CO)[C@@H](O)[C@@H]2O)c(=O)n1 [Cytarabine] + Nc1nc2[nH]cc(CCc3ccc(C(=O)N[C@@H](CCC(=O)O)C(=O)O)cc3)c2c(=O)[nH]1 [Pemetrexed] (partner 0.2 µM)
- relative viability (NCI-H2405; first compound 0.005 µM): 1
- relative viability (NCI-H2405; first compound 0.01581 µM): 0.654
- relative viability (NCI-H2405; first compound 0.05 µM): 0.61
- relative viability (NCI-H2405; first compound 0.1581 µM): 0.495
- relative viability (NCI-H2405; first compound 0.5 µM): 0.41
- relative viability (COR-L23; first compound 0.005 µM): 0.196
- relative viability (COR-L23; first compound 0.01581 µM): 0.204
- relative viability (COR-L23; first compound 0.05 µM): 0.206
- relative viability (COR-L23; first compound 0.1581 µM): 0.16
- relative viability (COR-L23; first compound 0.5 µM): 0.158
- relative viability (NCI-H2023; first compound 0.005 µM): 0.193
- relative viability (NCI-H2023; first compound 0.01581 µM): 0.126
- relative viability (NCI-H2023; first compound 0.05 µM): 0.105
- relative viability (NCI-H2023; first compound 0.1581 µM): 0.0804
- relative viability (NCI-H2023; first compound 0.5 µM): 0.0895
- relative viability (NCI-H2126; first compound 0.005 µM): 0.76
- relative viability (NCI-H2126; first compound 0.01581 µM): 0.775
- relative viability (NCI-H2126; first compound 0.05 µM): 0.525
- relative viability (NCI-H2126; first compound 0.1581 µM): 0.549
- relative viability (NCI-H2126; first compound 0.5 µM): 0.46
- relative viability (NCI-H838; first compound 0.005 µM): 0.243
- relative viability (NCI-H838; first compound 0.01581 µM): 0.235
- relative viability (NCI-H838; first compound 0.05 µM): 0.272
- relative viability (NCI-H838; first compound 0.1581 µM): 0.216
- relative viability (NCI-H838; first compound 0.5 µM): 0.213
- relative viability (NCI-H1395; first compound 0.005 µM): 0.798
- relative viability (NCI-H1395; first compound 0.01581 µM): 0.566
- relative viability (NCI-H1395; first compound 0.05 µM): 0.638
- relative viability (NCI-H1395; first compound 0.1581 µM): 0.361
- relative viability (NCI-H1395; first compound 0.5 µM): 0.326
- relative viability (HARA; first compound 0.005 µM): 0.243
- relative viability (HARA; first compound 0.01581 µM): 0.221
- relative viability (HARA; first compound 0.05 µM): 0.217
- relative viability (HARA; first compound 0.1581 µM): 0.171
- relative viability (HARA; first compound 0.5 µM): 0.153
- relative viability (HCC-15; first compound 0.005 µM): 0.249
- relative viability (HCC-15; first compound 0.01581 µM): 0.215
- relative viability (HCC-15; first compound 0.05 µM): 0.226
- relative viability (HCC-15; first compound 0.1581 µM): 0.225
- relative viability (HCC-15; first compound 0.5 µM): 0.222
- relative viability (HOP-62; first compound 0.005 µM): 0.388
- relative viability (HOP-62; first compound 0.01581 µM): 0.411
- relative viability (HOP-62; first compound 0.05 µM): 0.309
- relative viability (HOP-62; first compound 0.1581 µM): 0.113
- relative viability (HOP-62; first compound 0.5 µM): 0.072
- relative viability (NCI-H1793; first compound 0.005 µM): 0.902
- relative viability (NCI-H1793; first compound 0.01581 µM): 0.827
- relative viability (NCI-H1793; first compound 0.05 µM): 0.827
- relative viability (NCI-H1793; first compound 0.1581 µM): 0.374
- relative viability (NCI-H1793; first compound 0.5 µM): 0.206
- relative viability (EMC-BAC-2; first compound 0.005 µM): 0.476
- relative viability (EMC-BAC-2; first compound 0.01581 µM): 0.446
- relative viability (EMC-BAC-2; first compound 0.05 µM): 0.31
- relative viability (EMC-BAC-2; first compound 0.1581 µM): 0.244
- relative viability (EMC-BAC-2; first compound 0.5 µM): 0.247
- relative viability (HCC-78; first compound 0.005 µM): 0.824
- relative viability (HCC-78; first compound 0.01581 µM): 0.918
- relative viability (HCC-78; first compound 0.05 µM): 0.889
- relative viability (HCC-78; first compound 0.1581 µM): 0.936
- relative viability (HCC-78; first compound 0.5 µM): 0.894
- relative viability (SK-LU-1; first compound 0.005 µM): 0.827
- relative viability (SK-LU-1; first compound 0.01581 µM): 0.732
- relative viability (SK-LU-1; first compound 0.05 µM): 0.642
- relative viability (SK-LU-1; first compound 0.1581 µM): 0.377
- relative viability (SK-LU-1; first compound 0.5 µM): 0.331
- relative viability (NCI-H1944; first compound 0.005 µM): 0.505
- relative viability (NCI-H1944; first compound 0.01581 µM): 0.312
- relative viability (NCI-H1944; first compound 0.05 µM): 0.241
- relative viability (NCI-H1944; first compound 0.1581 µM): 0.14
- relative viability (NCI-H1944; first compound 0.5 µM): 0.116
- relative viability (LC-2-ad; first compound 0.005 µM): 0.28
- relative viability (LC-2-ad; first compound 0.01581 µM): 0.31
- relative viability (LC-2-ad; first compound 0.05 µM): 0.286
- relative viability (LC-2-ad; first compound 0.1581 µM): 0.268
- relative viability (LC-2-ad; first compound 0.5 µM): 0.265
- relative viability (NCI-H23; first compound 0.005 µM): 0.611
- relative viability (NCI-H23; first compound 0.01581 µM): 0.527
- relative viability (NCI-H23; first compound 0.05 µM): 0.445
- relative viability (NCI-H23; first compound 0.1581 µM): 0.172
- relative viability (NCI-H23; first compound 0.5 µM): 0.159
- relative viability (HCC-366; first compound 0.005 µM): 0.161
- relative viability (HCC-366; first compound 0.01581 µM): 0.217
- relative viability (HCC-366; first compound 0.05 µM): 0.25
- relative viability (HCC-366; first compound 0.1581 µM): 0.0693
- relative viability (HCC-366; first compound 0.5 µM): 0.062
- relative viability (NCI-H358; first compound 0.005 µM): 0.195
- relative viability (NCI-H358; first compound 0.01581 µM): 0.188
- relative viability (NCI-H358; first compound 0.05 µM): 0.185
- relative viability (NCI-H358; first compound 0.1581 µM): 0.168
- relative viability (NCI-H358; first compound 0.5 µM): 0.116
- relative viability (NCI-H1993; first compound 0.005 µM): 0.682
- relative viability (NCI-H1993; first compound 0.01581 µM): 0.548
- relative viability (NCI-H1993; first compound 0.05 µM): 0.299
- relative viability (NCI-H1993; first compound 0.1581 µM): 0.448
- relative viability (NCI-H1993; first compound 0.5 µM): 0.471
- relative viability (NCI-H2228; first compound 0.005 µM): 0.32
- relative viability (NCI-H2228; first compound 0.01581 µM): 0.275
- relative viability (NCI-H2228; first compound 0.05 µM): 0.134
- relative viability (NCI-H2228; first compound 0.1581 µM): 0.0993
- relative viability (NCI-H2228; first compound 0.5 µM): 0.133
- relative viability (ChaGo-K-1; first compound 0.005 µM): 0.264
- relative viability (ChaGo-K-1; first compound 0.01581 µM): 0.249
- relative viability (ChaGo-K-1; first compound 0.05 µM): 0.239
- relative viability (ChaGo-K-1; first compound 0.1581 µM): 0.209
- relative viability (ChaGo-K-1; first compound 0.5 µM): 0.192
